Measurements reported in patent US20240350522A1, “HYGROMYCIN A FOR TREATMENT OF DISEASES AND INFECTIONS” (FLIGHTPATH BIOSCIENCES, INC., priority 2021, published 2024).
Several values for one entry are separate records, joined by “and”; a condition that tells them apart may be missing. Identical values can stand only once.

Experiments:
Assay type in all cases: cell-based
[1] = system: Treponema pallidum pallidum SS14 strain; assay: T. pallidum susceptibility assay, co-culture with Sf1Ep cells, tp0574 (T47) qPCR after 7 days; settings: penicillin 60 ng/ml, 7 days
[2] = system: Treponema pallidum pallidum Chicago strain; assay: Treated treponemes seeded onto no-antibiotic plate, 7 more days, T47 qPCR (treponemicidal activity)
[3] = system: Treponema pallidum pallidum Chicago strain; assay: T. pallidum susceptibility assay, co-culture with Sf1Ep cells, tp0574 (T47) qPCR after 7 days; settings: penicillin 60 ng/ml, 7 days
[4] = system: Treponema pallidum pallidum SS14 strain; assay: Treated treponemes seeded onto no-antibiotic plate, 7 more days, T47 qPCR (treponemicidal activity)
[5] = pre-treated with penicillin 60 ng/ml, seeded on no antibiotic plate, average
[6] = pre-treated with penicillin 60 ng/ml, seeded on no antibiotic plate, replicate wells

## CC1(C)S[C@@H]2[C@H](NC(=O)Cc3ccccc3)C(=O)N2[C@H]1C(=O)O [Pen., penicillin G, reference compound]
[1]; average of 8 replicates
  Mean T47 copies/μL, Average: 216 copies/μL
[1]; replicate wells
  Mean T47 copies/μL, experimental values: 189 copies/μL and 200 copies/μL and 166 copies/μL and 282 copies/μL and 184 copies/μL and 223 copies/μL and 214 copies/μL and 271 copies/μL
[2]; Chicago strain, 60 ng/ml
  treponemicidal activity in words: treponemicidal
[2]; [5]
  Mean T47 copies/μL, Avg.: 26 copies/μL
[2]; [6]
  Mean T47 copies/μL, Expt. values: 12 copies/μL (2×) and 41 copies/μL and 74 copies/μL and 22 copies/μL (2×) and 15 copies/μL and 11 copies/μL
[3]; average of 8 replicates
  Mean T47 copies/μL, Avg.: 252 copies/μL
[3]; replicate wells
  Mean T47 copies/μL, experimental values: 294 copies/μL and 226 copies/μL and 304 copies/μL and 137 copies/μL and 328 copies/μL and 261 copies/μL and 222 copies/μL and 241 copies/μL
[4]; SS14 strain, 60 ng/ml
  treponemicidal activity in words: treponemicidal
[4]; [5]
  Mean T47 copies/μL, Avg.: 18 copies/μL
[4]; [6]
  Mean T47 copies/μL, Expt. values: 21 copies/μL (2×) and 17 copies/μL and 24 copies/μL and 10 copies/μL and 13 copies/μL and 27 copies/μL and 15 copies/μL
